Values after ≈ are worked out from the molar mass of the structure shown. Like-named read-outs stand apart in the source and are kept apart here.
Key:
Test in all cases: in vitro antibacterial activity, two-fold serial agar dilution in Mueller-Hinton agar (MIC)
Format in all cases: cell-based
[1] = tested on: CETsensitive E. coli (3) and Kl. pneumoniae (2); conditions: Escherichia coli, read-out: Geometric mean of MIC
Text: (§1) Table 3 lists the in vitro antibacterial activity of several representative compounds of the invention. The activity has been evaluated in terms of minimum inhibitory concentrations (MIC's) by a standard two-fold serial agar dilution method in Mueller-Hinton agar. The values are in geometric means of MIC's against the strains tested in each group. The activity of the known compound ceftazidime is also given for comparison.
GnIb: CETsensitive E. coli (3) and Kl. pneumoniae (2)

X. moltophilia = conditions: read-out: Geometric mean of MIC
Text: as §1

P. cepacia = conditions: Burkholderia cepacia; Pc, 2 strains; read-out: Geometric mean of MIC
Text: as §1

[2] = tested on: Penicillin (PC)sensitive S. aureus; conditions: Staphylococcus aureus, Gp-Ia, 5 strains, read-out: Geometric mean of MIC
Text: as §1
GpIa: Penicillin (PC)sensitive S. aureus

PCresistant S. aureus = conditions: Staphylococcus aureus; Gp-Ib, 5 strains, penicillin-resistant S. aureus; read-out: Geometric mean of MIC
Text: as §1
GpIb: PCresistant S. aureus

[3] = tested on: Ceftazidimemoderately resistant P. aeruginosa; conditions: Pseudomonas aeruginosa, read-out: Geometric mean of MIC
Text: as §1
Pa (MR): Ceftazidimemoderately resistant P. aeruginosa

[4] = tested on: Ceftazidimesensitive P. aeruginosa; conditions: Pseudomonas aeruginosa, read-out: Geometric mean of MIC
Text: as §1
Pa (S): Ceftazidimesensitive P. aeruginosa

[5] = tested on: Cephalothin (CET)sensitive E. coli (2 strains), Kl. pneumoniae (1) and Pr. mirabilis (2); conditions: Gn-Ia, 5 strains, read-out: Geometric mean of MIC
Text: as §1
GnIa: Cephalothin (CET)sensitive E. coli (2 strains), Kl. pneumoniae (1)

[6] = tested on: M. morganii (1), Ent. cloacae (2) and Ser. marcesens (2); conditions: Morganella morganii, read-out: Geometric mean of MIC
Text: as §1
GnII: M. morganii (1), Ent. cloacae (2) and Ser. marcesens (2)

[7] = tested on: Ceftazidimehighly resistant P. aeruginosa; conditions: Pseudomonas aeruginosa; Pa (HR), 8 strains, ceftazidime highly resistant; read-out: Geometric mean of MIC
Text: as §1
Pa (HR): Ceftazidimehighly resistant P. aeruginosa

[8] = Pa (S), 10 strains, ceftazidime-sensitive
[9] = Pa (MR), 8 strains, ceftazidime moderately resistant

| Compound | MIC [1] | MIC (X. moltophilia; Xm, 4 strains) | MIC (P. cepacia) | MIC [2] | MIC (PCresistant S. aureus) | MIC [3] | MIC [4, 8] | MIC [5] | MIC ([6]; Gn-II, 5 strains) | MIC [7] | MIC [3, 9] | MIC [4] | MIC [6] | MIC (X. moltophilia) |
| --- | --- | --- | --- | --- | --- | --- | --- | --- | --- | --- | --- | --- | --- | --- |
| CC(C)(O/N=C(\C(=O)NC1C(=O)N2C(C(=O)O)=C(Cn3cnc4cc(O)c(O)cc43)CS[C@H]12)c1csc(N)n1)C(=O)O (some centres unmarked) [Ia, 7-[(Z)-2-(2-Aminothiazol-4-yl)-2-(1-carboxy-1-methylethoxyimino)acetamido]-3-(5,6-dihydroxybenzimidazol-1-yl)methyl-3-cephem-4-carboxylic acid] | 0.8 µg/mL (≈ 1.3 µM) | 3.1 µg/mL (≈ 5.02 µM) | 12.5 µg/mL (≈ 20.2 µM) | 50 µg/mL (≈ 81 µM) | 50 µg/mL (≈ 81 µM) | 0.47 µg/mL (≈ 0.761 µM) | 0.14 µg/mL (≈ 0.227 µM) | 0.61 µg/mL (≈ 0.988 µM) | 1.6 µg/mL (≈ 2.59 µM) | 0.37 µg/mL (≈ 0.599 µM) | – | – | – | – |
| CC(C)(O/N=C(\C(=O)NC1C(=O)N2C(C(=O)O)=C(Cn3ccc4ccc(O)c(=O)c-4c3)CS[C@H]12)c1csc(N)n1)C(=O)O (some centres unmarked) [Ib, 7-[(Z)-2-(2-Aminothiazol-4-yl)-2-(1-carboxy-1-methylethoxyimino)acetamido]-3-(2,8-dihydro-7-hydroxy-8-oxo-isoquinolin-2-yl)methyl-3-cephem-4-carboxylic acid] | 0.8 µg/mL (≈ 1.27 µM) | 12.5 µg/mL (≈ 19.9 µM) | 8.9 µg/mL (≈ 14.2 µM) | 100 µg/mL (≈ 159 µM) | > 100 µg/mL | – | – | 0.6 µg/mL (≈ 0.954 µM) | 2.4 µg/mL (≈ 3.82 µM) | 2.6 µg/mL (≈ 4.14 µM) | 2.9 µg/mL (≈ 4.61 µM) | 1.2 µg/mL (≈ 1.91 µM) | – | – |
| CC(C)(O/N=C(\C(=O)NC1C(=O)N2C(C(=O)O)=C(Cn3cc4cc(O)c(=O)cc-4cn3)CS[C@H]12)c1csc(N)n1)C(=O)O (some centres unmarked) [Ic, 7-[(Z)-2-(2-Aminothiazol-4-yl)-2-(1-carboxy-1methylethoxyimino)acetamido]-3-(2,6-dihydro-7-hydroxy-6-oxophthalazin-2-yl)methyl-3-cephem-4-carboxylic acid] | 0.033 µg/mL (≈ 0.0524 µM) | 6.3 µg/mL (≈ 10 µM) | 0.57 µg/mL (≈ 0.905 µM) | 25 µg/mL (≈ 39.7 µM) | 33 µg/mL (≈ 52.4 µM) | – | 0.033 µg/mL (≈ 0.0524 µM) | 0.11 µg/mL (≈ 0.175 µM) | 0.4 µg/mL (≈ 0.635 µM) | 0.73 µg/mL (≈ 1.16 µM) | 0.37 µg/mL (≈ 0.588 µM) | – | – | – |
| C[n+]1cn(CC2=C(C(=O)[O-])N3C(=O)C(NC(=O)C(=NOC(C)(C)C(=O)O)c4csc(N)n4)C3SC2)c2cc(O)c(O)cc21 (centres unmarked) [Id, 7-[(Z)-2-(2-Aminothiazol-4-yl)-2-(1-carboxy-1-methylethoxyimino)acetamido]-3-(5,6-dihydroxy-3-methylbenzimidazol-3-io-1-yl)methyl-3-cephem-4-carboxylate] | 0.15 µg/mL (≈ 0.237 µM) | 0.8 µg/mL (≈ 1.27 µM) | 3.2 µg/mL (≈ 5.07 µM) | 25 µg/mL (≈ 39.6 µM) | 33 µg/mL (≈ 52.2 µM) | – | 0.057 µg/mL (≈ 0.0902 µM) | 0.044 µg/mL (≈ 0.0697 µM) | – | 0.18 µg/mL (≈ 0.285 µM) | 0.31 µg/mL (≈ 0.491 µM) | – | 0.15 µg/mL (≈ 0.237 µM) | – |
| CC(C)(O/N=C(\C(=O)N[C@@H]1C(=O)N2C(C(=O)[O-])=C(C[n+]3ccccc3)CS[C@H]12)c1csc(N)n1)C(=O)O [ceftazidime, reference compound] | 0.3 µg/mL (≈ 0.549 µM) | – | 18 µg/mL (≈ 32.9 µM) | 6.3 µg/mL (≈ 11.5 µM) | 12.5 µg/mL (≈ 22.9 µM) | – | – | 0.17 µg/mL (≈ 0.311 µM) | – | 65 µg/mL (≈ 119 µM) | 14 µg/mL (≈ 25.6 µM) | 1.2 µg/mL (≈ 2.2 µM) | 0.91 µg/mL (≈ 1.66 µM) | 71 µg/mL (≈ 130 µM) |

Source: patent US5194433A, “Antibiotic C-3 catechol-substituted cephalosporin compounds, compositions and method of use thereof” (Bristol-Myers Squibb Company, priority 1990, dated 1993)
